Experimental findings from ChEMBL document CHEMBL5500396, “Discovery, Multiparametric Optimization, and Solid-State Driven Identification of CHF-6550, a Novel Soft Dual Pharmacology Muscarinic Antagonist and β2 Agonist (MABA) for the Inhaled Treatment of Respiratory Diseases” (J Med Chem, 2024) are described below.

In general, half-life refers to the time needed for the level to fall by half in the phase considered. As a reminder, the Ki is a dissociation constant, usually derived from enzyme kinetics or from competition with a known ligand. Low values mean higher affinity, high ones lower affinity. In general, hepatocyte CLint refers to the rate of metabolic loss divided by the concentration.

Data set [1] is described as follows: in vitro. The conditions noted are these: human, plasma.
Description: Stability in human plasma assessed as half-life at 5 uM incubated for 120 mins by LC-MS/MS analysis
Data set [2] has as its target Muscarinic acetylcholine receptor M3 (Homo sapiens, UniProt P20309).
Description: Displacement of Scopolamine methyl chloride,[N-methyl-3H] from human muscarinic M3 receptor assessed as inhibition constant incubated for 2 hrs by Microbeta scintillation counter
The nature of data set [3]: in vitro. The conditions noted are these: rat, plasma.
Description: Stability in rat plasma assessed as half-life at 5 uM incubated for 120 mins by LC-MS/MS analysis
The target of data set [4] is Beta-2 adrenergic receptor (Homo sapiens, UniProt P07550).
Beta-2 adrenergic receptor (Homo sapiens, UniProt P07550), sequence (P07550 whole entry): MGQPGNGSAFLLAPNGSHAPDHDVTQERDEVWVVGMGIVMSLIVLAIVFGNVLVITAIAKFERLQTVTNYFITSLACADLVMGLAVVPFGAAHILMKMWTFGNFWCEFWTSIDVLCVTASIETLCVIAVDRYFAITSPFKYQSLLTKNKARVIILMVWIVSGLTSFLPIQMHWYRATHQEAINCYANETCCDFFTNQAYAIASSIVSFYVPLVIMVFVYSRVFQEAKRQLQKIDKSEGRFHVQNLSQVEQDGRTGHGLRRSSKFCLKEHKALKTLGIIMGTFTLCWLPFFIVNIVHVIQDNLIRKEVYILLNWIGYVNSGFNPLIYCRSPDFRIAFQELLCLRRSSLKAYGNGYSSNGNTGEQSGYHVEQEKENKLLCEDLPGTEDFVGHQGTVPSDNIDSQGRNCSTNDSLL
Description: Displacement of [125I]-Cyanopindolol from human beta2 adrenoceptor assessed as inhibition constant incubated for 1 hrs by Microbeta scintillation counter
Data set [5] can be described thus: in vitro. The conditions noted are these: rat, hepatocytes.
Description: Metabolic stability in rat hepatocytes assessed as clearance measured per 10^6 cells at 1 uM incubated for 90 mins by LC-MS/MS analysis
Data set [6] in a line: in vitro. The note with it: human, hepatocytes.
Description: Metabolic stability in human hepatocytes assessed as clearance measured per 10^6 cells at 1 uM incubated for 90 mins by LC-MS/MS analysis
A short description of data set [7]: in vitro. The conditions noted are these: guinea pig, plasma.
Description: Stability in guinea pig plasma assessed as half-life at 5 uM incubated for 120 mins by LC-MS/MS analysis
The target in data set [8] is Muscarinic acetylcholine receptor M3 (Cavia porcellus, UniProt Q8VH26). Description: Antagonist activity at M3 receptor in male albino Dunkin-Hartley guinea pig trachea assessed as inhibition of carbachol-induced smooth muscle contraction in presence of propranolol.
Muscarinic acetylcholine receptor M3 (Cavia porcellus, UniProt Q8VH26), sequence (Q8VH26 whole entry): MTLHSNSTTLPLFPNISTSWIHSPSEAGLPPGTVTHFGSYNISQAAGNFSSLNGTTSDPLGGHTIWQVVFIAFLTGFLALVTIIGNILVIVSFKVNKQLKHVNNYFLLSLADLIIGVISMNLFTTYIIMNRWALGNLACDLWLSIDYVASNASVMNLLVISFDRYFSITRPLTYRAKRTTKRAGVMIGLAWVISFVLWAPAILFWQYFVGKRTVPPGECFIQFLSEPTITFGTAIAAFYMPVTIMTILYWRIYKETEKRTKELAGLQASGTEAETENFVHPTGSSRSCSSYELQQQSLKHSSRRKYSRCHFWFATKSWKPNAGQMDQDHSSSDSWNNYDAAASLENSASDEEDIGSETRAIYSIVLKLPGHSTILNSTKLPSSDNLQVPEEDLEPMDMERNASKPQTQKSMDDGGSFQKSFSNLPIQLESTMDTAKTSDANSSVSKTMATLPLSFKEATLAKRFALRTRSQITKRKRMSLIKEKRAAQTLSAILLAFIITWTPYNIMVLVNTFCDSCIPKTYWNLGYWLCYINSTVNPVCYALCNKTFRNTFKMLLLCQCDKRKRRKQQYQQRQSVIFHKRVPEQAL
Another data set concerns Trachea. The data set is described as follows: Inhibition of carbachol-induced smooth muscle contraction in male albino Dunkin-Hartley guinea pig trachea. The note with it: Cavia porcellus, read-out: pIC50 (converted).
The target in data set [9] is Beta-2 adrenergic receptor (Cavia porcellus, UniProt Q8K4Z4). The data set is described as follows: Agonist activity at beta2 adrenoceptor in male albino Dunkin-Hartley guinea pig trachea assessed as inhibition of histamine induced smooth muscle contraction.
Beta-2 adrenergic receptor (Cavia porcellus, UniProt Q8K4Z4), sequence (Q8K4Z4 whole entry): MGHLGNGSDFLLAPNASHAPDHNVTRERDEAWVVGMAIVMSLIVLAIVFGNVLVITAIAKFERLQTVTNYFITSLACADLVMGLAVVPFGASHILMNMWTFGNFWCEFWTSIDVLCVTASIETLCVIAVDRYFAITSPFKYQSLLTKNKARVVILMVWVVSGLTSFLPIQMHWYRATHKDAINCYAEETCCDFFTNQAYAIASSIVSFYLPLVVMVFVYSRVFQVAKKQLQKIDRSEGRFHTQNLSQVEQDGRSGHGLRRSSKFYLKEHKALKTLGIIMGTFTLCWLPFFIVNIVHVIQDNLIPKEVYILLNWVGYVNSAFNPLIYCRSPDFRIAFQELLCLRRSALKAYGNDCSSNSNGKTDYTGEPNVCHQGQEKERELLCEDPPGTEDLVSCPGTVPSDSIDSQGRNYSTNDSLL

Muscarinic acetylcholine receptor M3 (Homo sapiens, UniProt P20309), sequence (P20309 whole entry): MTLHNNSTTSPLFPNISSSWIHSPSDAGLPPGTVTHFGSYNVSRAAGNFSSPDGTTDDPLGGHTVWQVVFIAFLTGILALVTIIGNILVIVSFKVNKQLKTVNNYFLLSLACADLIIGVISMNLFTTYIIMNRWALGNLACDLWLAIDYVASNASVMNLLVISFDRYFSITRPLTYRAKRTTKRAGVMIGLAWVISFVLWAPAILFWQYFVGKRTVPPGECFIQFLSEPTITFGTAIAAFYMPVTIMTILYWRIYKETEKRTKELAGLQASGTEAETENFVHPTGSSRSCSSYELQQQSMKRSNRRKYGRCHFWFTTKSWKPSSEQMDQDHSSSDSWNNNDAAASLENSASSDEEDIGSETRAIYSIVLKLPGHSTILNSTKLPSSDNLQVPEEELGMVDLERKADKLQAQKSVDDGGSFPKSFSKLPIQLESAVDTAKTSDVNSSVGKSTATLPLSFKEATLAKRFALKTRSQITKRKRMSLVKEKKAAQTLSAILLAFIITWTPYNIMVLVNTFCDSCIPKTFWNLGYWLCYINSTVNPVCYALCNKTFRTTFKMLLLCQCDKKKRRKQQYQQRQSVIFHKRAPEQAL

Turning to `CN1CCC(COC(=O)[C@](O)(c2ccccc2)c2cccc(OCCCNC(=O)c3ccc(CNC[C@H](O)c4ccc(O)c5[nH]c(=O)ccc45)cc3)c2)CC1`, the half-life at 2 h, 5 µM in the data set “in vitro [1]” is above 150 min; in the data set “in vitro [3]”, 115 min; in “in vitro [7]”, 11 min. Further, the Ki in data set [2] is 0.501 nM; in data set [4], 0.0398 nM. In addition, the values for the hepatocyte CLint at 1.5 h, 1 µM in the data set “in vitro [5]” and in “in vitro [6]” were 15 µL/min/1e6 cells and below 2 µL/min/1e6 cells, respectively.
For `COc1cc(C(=O)NCCCOc2cccc([C@](O)(C(=O)OCC3CCN(CC4CC4)CC3)c3ccccc3)c2)c(F)cc1CNC[C@H](O)c1ccc(O)c2[nH]c(=O)ccc12.O=CO.O=CO`, the half-life at 2 h, 5 µM is above 150 min in the data set “in vitro [1]”, 15 min in “in vitro [3]” and above 150 min in the data set “in vitro [7]”. The inhibitory constant (Ki) in data set [2] is 0.01 nM; in data set [4], 0.316 nM. In addition, the hepatocyte CLint at 1.5 h, 1 µM came out at 47 µL/min/1e6 cells in “in vitro [5]” and 9 µL/min/1e6 cells in “in vitro [6]”.
In the case of `O=C(c1ccc(CNC[C@H](O)c2ccc(O)c3[nH]c(=O)ccc23)cc1)N1CC(COc2cccc([C@](O)(C(=O)OCC3CCN(Cc4ccccc4)CC3)c3ccccc3)c2)C1`, the half-life at 2 h, 5 µM was above 150 min in “in vitro [1]”, 50 min in “in vitro [3]” and 19 min in the data set “in vitro [7]”. Besides, the Ki was 1.26 nM in data set [2] and 1 nM in data set [4]. Moreover, the hepatocyte CLint at 1.5 h, 1 µM is 22 µL/min/1e6 cells in “in vitro [5]” and 16 µL/min/1e6 cells in the data set “in vitro [6]”.
On to `CN1CCC(COC(=O)[C@](O)(c2ccccc2)c2cccc(-c3ccc(CNC(=O)c4ccc(CNC[C@H](O)c5ccc(O)c6[nH]c(=O)ccc56)cc4)s3)c2)CC1`, for which the values for the half-life at 2 h, 5 µM in the data set “in vitro [1]”, in the data set “in vitro [3]” and in “in vitro [7]” were above 150 min, 88 min and 48 min, respectively. Further, the inhibitory constant (Ki) in data set [2] is 2.51 nM; in [4], 0.398 nM. The intrinsic clearance (hepatocyte CLint) at 1.5 h, 1 µM in the data set “in vitro [5]” was 21 µL/min/1e6 cells; in the data set “in vitro [6]”, 27 µL/min/1e6 cells.
With `O=C(N[C@@H](c1ccccc1)c1cccc(OCc2ccc(C(=O)NCCCNC[C@H](O)c3ccc(O)c4[nH]c(=O)ccc34)cc2)c1)O[C@@H]1CN2CCC1CC2`, the IC50 in data set [8] is 0.2 nM; in the data set with Trachea, 0.158 nM; in [9], 0.158 nM. The inhibition constant Ki in data set [2] is 0.1 nM; in data set [4], 0.0126 nM.
Take `O=C(NCCCNC[C@H](O)c1ccc(O)c2[nH]c(=O)ccc12)c1ccc(COc2cccc([C@@](O)(C(=O)OCC3CCN(Cc4ccccc4)CC3)c3ccccc3)c2)cc1`: the IC50 is 5.01 nM in data set [8], 0.02 nM in the data set with Trachea and 0.2 nM in [9]. In addition, the Ki in data set [2] is 3.16 nM; in data set [4] it was 0.0316 nM.
Take `COc1cc(C(=O)N2CCC(c3cccc([C@](O)(C(=O)OCC4CCN(Cc5ccccc5)CC4)c4ccccc4)c3)CC2)ccc1CNC[C@H](O)c1ccc(O)c2[nH]c(=O)ccc12`: the half-life at 2 h, 5 µM in the data set “in vitro [1]” was above 150 min; in the data set “in vitro [3]”, above 150 min; in the data set “in vitro [7]”, 35 min. For the same molecule, the results for the inhibition constant (Ki) in data set [2] and in data set [4] were 0.631 nM and 0.501 nM, respectively. Further, the hepatocyte CLint at 1.5 h, 1 µM in “in vitro [5]” was 29 µL/min/1e6 cells; in the data set “in vitro [6]”, 28 µL/min/1e6 cells.
On to `CN1CCC(COC(=O)[C@@](O)(c2ccccc2)c2cccc(-c3ccc(CNC(=O)c4ccc(CNC[C@H](O)c5ccc(O)c6[nH]c(=O)ccc56)cc4)s3)c2)CC1`, for which the half-life at 2 h, 5 µM in the data set “in vitro [1]” was above 150 min; in “in vitro [3]” it was above 150 min; in the data set “in vitro [7]”, 9 min. Further, the inhibitory constant (Ki) in data set [2] was 0.158 nM; in [4], 1 nM. Besides, the figures for the hepatocyte CLint at 1.5 h, 1 µM in “in vitro [5]” and in “in vitro [6]” were 13 µL/min/1e6 cells and 3 µL/min/1e6 cells, respectively.
As to `O=C(NCCCNC[C@H](O)c1ccc(O)c2[nH]c(=O)ccc12)c1ccc(COc2cccc([C@](O)(C(=O)OCC3CCN(Cc4ccccc4)CC3)c3ccccc3)c2)cc1`, the IC50 is 0.2 nM in [8], 0.126 nM in the data set on Trachea and 0.2 nM in data set [9]. Also, the figures for the inhibitory constant (Ki) in data set [2] and in data set [4] were 0.251 nM and 0.02 nM, respectively.
